# pIC50: −log10 of the molar value. Where two headings read alike, the source gives them in different places.
# What was measured:
# [1] = biological target: T1, dihydrofolate reductase (CauDHFR) (Candidozyma auris, UniProt A0A0L0P1H8); assay: ([…] Å); DSF shift +[…] °C; NADPH-consumption IC50; assay type: biochemical
# T1 construct: gene QG37_02791; His-tag-removed CauDHFR
# T1 sequence (A0A0L0P1H8 1-204): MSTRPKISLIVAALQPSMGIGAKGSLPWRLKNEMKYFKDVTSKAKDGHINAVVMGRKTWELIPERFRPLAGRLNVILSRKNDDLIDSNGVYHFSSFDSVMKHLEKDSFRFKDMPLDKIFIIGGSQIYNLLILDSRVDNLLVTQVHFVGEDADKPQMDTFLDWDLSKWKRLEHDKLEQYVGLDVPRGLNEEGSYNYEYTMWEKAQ
# C. albicans = system: T2, C. albicans; assay: microbe, parasite or virus in culture; parameters: species or system Candida yeast; details: Candida albicans, 24 h, 50% growth inhibition end point
# T2 construct: SC 5314
# Experimental: (§1) The antifungal activity of DHFR inhibitors was evaluated against C. albicans (SC 5314), C. glabrata (ATCC 2001) and C. auris (CBS 12766) by the broth microdilution technique (CLSI, 2017[▸]). DHFR inhibitors were serially diluted (1:2) in RPMI 1640 medium buffered with 0.165 M 3-(N-morpholino)propanesulfonic acid in 96-well flat-bottom plates and yeast suspension was added to the wells to obtain a final yeast concentration of 0.5–2.5 × 10^3 CFU ml^−1 and final concentrations of DHFR inhibitors in the range 1–500 µg ml^−1. […] Studies were then performed against Candida spp. yeasts, with the addition of two more antifolates: diaveridine (DIA) and pemetrexed (PMX) (Supplementary Table S1). The inhibitory effect of these inhibitors on the fungal growth of C. albicans, C. glabrata and C. auris was tested using the broth microdilution assay. […] (Supplementary Table S1), including C. auris, supporting the lack of affinity seen in the IC50 assay (Table 2 ▸).
# C. auris = system: T3, C. auris; assay: microbe, parasite or virus in culture; parameters: species or system Candida yeast; details: Candidozyma auris, 24 h, 50% growth inhibition end point
# T3 construct: CBS 12766
# Experimental: as §1
# C. glabrata = system: T4, C. glabrata; assay: microbe, parasite or virus in culture; parameters: species or system Candida yeast; details: Nakaseomyces glabratus, 24 h, 50% growth inhibition end point
# T4 construct: ATCC 2001
# Experimental: as §1
structure (smiles),measurement,setting,value
"CC1(C)N=C(N)N=C(N)N1c1ccc(Cl)cc1 [CYG, cycloguanil]",pIC50,[1],3.40
same,MIC,C. albicans; read-out: MIC cycloguanil,500 µg/mL
same,MIC,C. auris; read-out: MIC cycloguanil,> 500 µg/mL
same,MIC,C. glabrata; read-out: MIC cycloguanil,500 µg/mL
"CN(Cc1cnc2nc(N)nc(N)c2n1)c1ccc(C(=O)N[C@@H](CCC(=O)O)C(=O)O)cc1 [MTX, methotrexate]",MIC,C. albicans; read-out: MIC methotrexate,250 µg/mL
same,MIC,C. auris; read-out: MIC methotrexate,> 500 µg/mL
same,MIC,C. glabrata; read-out: MIC methotrexate,> 500 µg/mL
"CCc1nc(N)nc(N)c1-c1ccc(Cl)cc1 [PYR, pyrimethamine]",MIC,C. albicans; read-out: MIC pyrimethamine,62.5 µg/mL
same,MIC,C. auris; read-out: MIC pyrimethamine,125 µg/mL
same,MIC,C. glabrata; read-out: MIC pyrimethamine,62.5 µg/mL
"COc1cc(Cc2cnc(N)nc2N)cc(OC)c1OC [TMP, trimethoprim]",MIC,C. albicans; read-out: MIC trimethoprim,500 µg/mL
same,MIC,C. auris; read-out: MIC trimethoprim,> 500 µg/mL
same,MIC,C. glabrata; read-out: MIC trimethoprim,500 µg/mL
COc1ccc(Cc2cnc(N)nc2N)cc1OC [diaveridine],MIC,C. albicans; read-out: MIC diaveridine,> 500 µg/mL
same,MIC,C. auris; read-out: MIC diaveridine,> 500 µg/mL
same,MIC,C. glabrata; read-out: MIC diaveridine,500 µg/mL
Nc1nc2[nH]cc(CCc3ccc(C(=O)N[C@@H](CCC(=O)O)C(=O)O)cc3)c2c(=O)[nH]1 [pemetrexed],MIC,C. albicans; read-out: MIC pemetrexed,500 µg/mL
same,MIC,C. auris; read-out: MIC pemetrexed,> 500 µg/mL
same,MIC,C. glabrata; read-out: MIC pemetrexed,500 µg/mL

# Reference: publication PMC10394672, “Crystal structure of dihydrofolate reductase from the emerging pathogenic fungus Candida auris” (Acta Crystallographica. Section D, Structural Biology, 2023)
